The text below walks through data of patent publication US6238693A, “Transdermal administration of fenoldopam” (priority 1999, dated 2001).

The subject of data set [1] is guinea pigs. The following applies: guinea pig, in vivo. The procedure: (§1) Dermal sensitization studies in guinea pigs were done to assess the contact sensitization of fenoldopam mesylate and of R-fenoldopam mesylate, the active enantiomer, when administered topically and intradermally. Each of the drugs, the fenoldopam mesylate and the R-fenoldopam mesylate, were administered to the animals from a 50:50 mixture of propylene glycol/water, at drug concentrations of 40 mg/mL, 30 mg/mL, 20 mg/mL, and 10 mg/mL.
Dermal sensitization was also evaluated following intradermal injection of fenoldopam mesylate and R-fenoldopam at the same concentrations used in the topical screening. As described in Example 2, four animals (Group 3) were treated with […] injections of fenoldopam mesylate at four injection sites, one for each of the four concentrations. Four animals in Group 4 were similarly injected with R-fenoldopam at the four concentrations. 24 hours after injection, the injection sites were scored for dermal reaction on the 4-point scale.
Guinea pigs (strain: CRl (HA)BR) were obtained from Charles River Laboratories. The animals were young adults, weighing between 350-550 g at the start of the study. Each animals was housed individually and fed ad libitum a certified
A stock solution of 50% propylene glycol/50% sterile water mixture was prepared as the control material and for preparation of the test materials.
On each day of testing, a 40 mg/mL fenoldopam mesylate or R-fenoldopam mesylate in 50% propylene glycol/50% sterile water solution was prepared using the stock solution. The 40 mg/mL drug solution was diluted with the stock solution to prepare solutions of 30 mg/mL, 20 mg/mL and 10 mg/mL of both the racemate and the enantiomer. All test materials were used within 8 hours of preparation and were stored at room temperature until administered.
Sixteen guinea pigs were divided into the following groups:
For the intradermal injection, the four animals in Group 3 were treated with intradermal injection of fenoldopam mesylate and the four animals in Group 4 were treated with intradermal injections of R-fenoldopam mesylate. The test materials were administered at concentrations of 40 mg/mL, 30 mg/mL, 20 mg/mL and 10 mg/mL by injecting each at a volume of 0.1 mL into a separate site on the shaved back of the test animal. The areas of intradermal injections were evaluated for dermal irritation on the four-point scale given above at 24 and 48 hours after injection. The test sites were clipped with an electric clipper before the first reading.

The subject of data set [2] is guinea pigs. As to the kind of experiment: Dermal sensitization challenge study (definitive study). The data set is classed as in vivo, guinea pig. The following applies: 40 mg/mL challenge. The method, then:
Based on the results from this initial phase of dermal sensitization studies, a definitive challenge dermal sensitivity study was conducted, as described in Example 3. Briefly, thirty animals were divided into three test groups of 10 animals each. The animals in Group 5 were treated with fenoldopam mesylate, the animals in Group 6 with R-fenoldopam mesylate and the animals in Group 7 were treated with vehicles alone as a control.
All animals were initially treated with intradermal injections of the test compound, e.g., fenoldopam mesylate (Group 5) or R-fenoldopam (Group 6), in a 1:1 mixture of propylene glycol:water or in a mixture of Freund's Complete Adjuvent (FCA) in propylene glycol:water. The drug concentration in these vehicle mixtures was 40 mg/mL (see Table 4 in Example 3). The animals were also treated with FCA in water alone. The animals in Group 7 received the same three formulations, except for the absence of fenoldopam.
One week after the intradermal injections, each of the test formulations was applied topically to the injection site. The topical application, in the form of a saturated patch of filter paper, was left in place for 48 hours.
Two weeks after the topical application, the animals in groups 5 and 6 received a challenge dose of 40 mg/mL of the test compound in PG:water, applied topically to a naive site. On the opposing side of the animal, the vehicle alone (PG:water) was applied. The animals in Group 7 received the vehicle alone on both sides. 24 hours after the topical challenge dose, the site was scored for dermal sensitization using the four-point scale given above.
Thirty guinea pigs were obtained and cared for as set forth in Example 2.
On Day 1 of the study, an area approximately 4 cm×6 cm was clipped with an electric clipper along the midline over the shoulder region of each animal in the test and control groups. Two rows of three 0.1 mL intradermal injections were made within the boundaries of a 2 cm×4 cm area, one row on each side of the midline. The injections in each row were as follows: at the anterior site, the animal received 0.1 mL of the prepared Freund's Complete Adjuvent (FCA) solution (Groups 5, 6 and 7); at the medial site, the animals received 0.1 mL of the respective prepared test material (Groups 5 and 6) or vehicle control (Group 7); and at the posterior site, the animals received 0.1 mL of the respective test material (drug in PG:water) further mixed with FCA solution (Groups 5 and 6) or a 1:1 dilution of the PG:water vehicle control in FCA.
On Day 7, the area of intradermal injection on each animal in Groups 5, 6 and 7 was clipped free of hair with an electric clipper. The clipped area was treated with 10% w/w sodium lauryl sulfate in petrolatum. […]

Data set [3] concerns guinea pigs. The following applies: guinea pig, in vivo. The method, then:
as §1
As described in Example 2, sixteen animals were divided into 4 groups of 4 animals each. The first group of 4 animals (Group 1) were treated with a topical application of fenoldopam mesylate at the four concentrations. Each animal, after having the hair removed from its back and sides, received each of the concentrations applied at four separate sites. The animals in Group 2 were similarly treated, except with R-fenoldopam. After 24 hours of exposure to the test material, the application site was scored on a four-point scale for dermal reactions (0=no reaction, 1=moderate mild redness, 2=moderate and diffuse redness, 3=intense redness and swelling). […]
For the topical application, the test materials were placed on 2 cm×2 cm pieced of filter paper to saturation and allowed to remain in place on the animal for 24 hours. […] The sites were scored on the following four-point scale for dermal reactions at approximately 24 and 48 hours after patch removal: […]
This is another data set of the same source.

For data set [4] the following is noted: cited from earlier work.
Data set [5] deals with dopamine type-1 receptors. Conditions: cited from earlier work.
The conditions of data set [6]: exposure to the atmosphere during storage; cited from earlier work.
For data set [7] the following is noted: cited from earlier work. This is another data set of the same source.
Where [8] appears, read: intravenous infusion, therapeutic dosages.

Counter-ions that a name gives are not always drawn.

Turning to `Oc1ccc(C2CNCCc3c2cc(O)c(O)c3Cl)cc1` (racemic) [fenoldopam mesylate], in the data set on guinea pigs [1], the “Dermal Reactions, intradermal injection” value is listed as 2 and the “appearance of injection site (footnote)” value was “Whitish in color”. In the data set on guinea pigs [2], the “animals scored as having "scattered mild redness"” value is reported as 6 of the 10 animals and the “dermal sensitization (summary)” value is “moderate dermal sensitization”. For the same compound, the “Dermal Reactions, topical application” value with guinea pigs [3] was determined as 0.
In the case of `Oc1ccc(C2CNCCc3c2cc(O)c(O)c3Cl)cc1` (racemic) [racemic fenoldopam], in data set [4] (human, in vivo, iv), the “average clearance (CL)” value is recorded as 2.6 L/min and the “half-life (t1/2)” value is recorded as 4.6 min.
As for `Oc1ccc([C@H]2CNCCc3c2cc(O)c(O)c3Cl)cc1` [R-fenoldopam mesylate], in the data set with guinea pigs [1], the “Dermal Reactions, intradermal injection” value is listed as 2 and the “appearance of injection site (footnote)” value is listed as “Whitish in color”. In addition, in the data set with guinea pigs [2], the “animals scored as having "scattered mild redness"” value is on record as 5 of the 10 animals and the “dermal sensitization (summary)” value is “moderate dermal sensitization”. Besides, the “Dermal Reactions, topical application” value in the data set with guinea pigs [3] was 0.
As to `Oc1ccc([C@H]2CNCCc3c2cc(O)c(O)c3Cl)cc1` [R-fenoldopam], the “biological activity of enantiomer” value in data set [5] is recorded as “the activity of the drug is due to the R-enantiomer”.
For the compound `Oc1ccc([C@@H]2CNCCc3c2cc(O)c(O)c3Cl)cc1` [S-fenoldopam], the “biological activity of enantiomer” value in data set [5] is “relatively inactive”.
In the case of `Oc1ccc(C2CNCCc3c2cc(O)c(O)c3Cl)cc1` (stereo not shown) [fenoldopam free base], in data set [6], the oxidation entry is “readily oxidized”.
`Oc1ccc(C2CNCCc3c2cc(O)c(O)c3Cl)cc1` (stereo not drawn) [fenoldopam, 6-chloro-2,3,4,5-tetrahydro-l-(4-hydroxyphenyl)-1H-3-benzazepine-7,8-diol]: the “dopamine agonism / peripheral vasodilation” value in data set [5] (via stimulation of dopamine type-1 receptors) is “dopamine agonist that causes peripheral vasodilation”. Besides, in data set [7] (in vivo), the blood pressure result was “decrease in blood pressure”; the “duration of antihypertensive and renal effects” value is on record as “short lasting”; the “renal vasodilation, diuresis and natriuresis” value was “renal vasodilation, diuresis and natriuresis”. For the same compound, in data set [7] (setting [8]), the “creatinine clearance, urinary flow and excretion of sodium and potassium” value was “increasing creatinine clearance, urinary flow and excretion of sodium and potassium”; the glomerular filtration rate entry is “maintaining glomerular filtration rate”; the renal blood flow entry is listed as “increases renal blood flow”; the renal vascular resistance result was “decreases renal vascular resistance”. Besides, the “time to achieve dose-dependent steady-state plasma concentration” value in data set [4] (intravenous, about 0.01-1.6 μg/kg/min for up to 48 hours) is “about 20 minutes”. In addition, the first-pass metabolism entry in data set [4] (via sulfation and glucuronidation) is “high first-pass metabolism”.
